Read-outs that look alike come from different tables or passages of the source.
Experiments:
[1] = system: SF-539; experiment: in vitro CNS cancer cell growth inhibition (NCI screen)
[2] = system: SNB-78; experiment: as above
[3] = system: SR; experiment: in vitro leukemia cell growth inhibition (NCI screen)
[4] = system: UACC-62; experiment: in vitro melanoma cell growth inhibition (NCI screen)
[5] = system: HCT-116; experiment: in vitro colon cancer cell growth inhibition (NCI screen)
[6] = system: NCI-H460; experiment: in vitro non-small cell lung cancer cell growth inhibition (NCI screen)
[7] = system: U 251; experiment: in vitro CNS cancer cell growth inhibition (NCI screen)
[8] = system: 786-0; experiment: in vitro renal cancer cell growth inhibition (NCI screen)
[9] = system: LOX1MVI; experiment: in vitro melanoma cell growth inhibition (NCI screen)
[10] = system: LXFL 529; experiment: in vitro non-small cell lung cancer cell growth inhibition (NCI screen)
[11] = system: CCRF-CEM; experiment: in vitro leukemia cell growth inhibition (NCI screen)
[12] = system: HL-60(TB); experiment: as above
[13] = system: HT 29; experiment: in vitro colon cancer cell growth inhibition (NCI screen)
[14] = system: MOLT-4; experiment: in vitro leukemia cell growth inhibition (NCI screen)
[15] = system: NCI-H522; experiment: in vitro non-small cell lung cancer cell growth inhibition (NCI screen)
[16] = system: M19-MEL; experiment: in vitro melanoma cell growth inhibition (NCI screen)
[17] = system: HCT-15; experiment: in vitro colon cancer cell growth inhibition (NCI screen)
[18] = system: KM 20L2; experiment: as above
[19] = system: SF-268; experiment: in vitro CNS cancer cell growth inhibition (NCI screen)
[20] = system: DLD-1; experiment: in vitro colon cancer cell growth inhibition (NCI screen)
[21] = system: human tumor cell lines; format: cell-based; conditions: Homo sapiens; non-small cell lung, CNS, melanoma, colon, leukemia, small cell lung, and renal cancer cell lines; read-out: logGI50 values (range over cell lines) (converted)
[22] = system: K-562; experiment: in vitro leukemia cell growth inhibition (NCI screen)
[23] = system: OVCAR-8; experiment: in vitro ovarian cancer cell growth inhibition (NCI screen)
[24] = system: IGROV1; experiment: as above
[25] = system: OVCAR-4; experiment: as above; conditions: OVACR-4
[26] = system: BT-549; experiment: in vitro breast cancer cell growth inhibition (NCI screen)
[27] = system: MALME-3M; experiment: in vitro melanoma cell growth inhibition (NCI screen)
[28] = system: MCF-7; experiment: in vitro breast cancer cell growth inhibition (NCI screen)
[29] = system: OVCAR-3; experiment: in vitro ovarian cancer cell growth inhibition (NCI screen)
[30] = system: SK-MEL-28; experiment: in vitro melanoma cell growth inhibition (NCI screen)
[31] = system: M14; experiment: as above
[32] = system: NCI-H23; experiment: in vitro non-small cell lung cancer cell growth inhibition (NCI screen)
[33] = system: MDA-MB-435; experiment: in vitro breast cancer cell growth inhibition (NCI screen)
[34] = system: MDA-N; experiment: as above
[35] = system: HCC-2998; experiment: in vitro colon cancer cell growth inhibition (NCI screen)
[36] = system: SK-MEL-2; experiment: in vitro melanoma cell growth inhibition (NCI screen)
[37] = system: UACC-257; experiment: as above
[38] = system: OVCAR-5; experiment: in vitro ovarian cancer cell growth inhibition (NCI screen)
[39] = system: DU-145; experiment: in vitro prostate cancer cell growth inhibition (NCI screen)
[40] = system: MOLT-4; conditions: human, molt-4 cells
[41] = system: SNB-75; experiment: in vitro CNS cancer cell growth inhibition (NCI screen)
[42] = system: PC-3; experiment: in vitro prostate cancer cell growth inhibition (NCI screen)
[43] = system: CCRF-CEM; conditions: human, ccrf-cem cells
[44] = system: K-562; conditions: human, k-562 cells
[45] = system: T-47D; experiment: in vitro breast cancer cell growth inhibition (NCI screen)
[46] = system: SW 620; experiment: in vitro colon cancer cell growth inhibition (NCI screen)
[47] = system: COLO-205; experiment: as above
[48] = system: SK-MEL-5; experiment: in vitro melanoma cell growth inhibition (NCI screen)
[49] = system: RXF-393; experiment: in vitro renal cancer cell growth inhibition (NCI screen)
[50] = system: NCI-H266; experiment: in vitro non-small cell lung cancer cell growth inhibition (NCI screen)
[51] = system: UO-31; experiment: in vitro renal cancer cell growth inhibition (NCI screen)
[52] = system: TK-10; experiment: as above
[53] = system: CAKI-1; experiment: as above
[54] = system: XF-498; experiment: in vitro CNS cancer cell growth inhibition (NCI screen)
[55] = system: HOP-92; experiment: in vitro non-small cell lung cancer cell growth inhibition (NCI screen)
[56] = system: SN12C; experiment: in vitro renal cancer cell growth inhibition (NCI screen)
[57] = system: HOP-18; experiment: in vitro non-small cell lung cancer cell growth inhibition (NCI screen)

Cc1nc2c(n1Cc1ccc(Cl)cc1)C(=O)c1ccccc1C2=O [Compound 20]
cytotoxicity log GI50 [1]: -5.60 M | cytotoxicity log GI50 [2]: -5.03 M | cytotoxicity log GI50 [3]: -5.88 M | cytotoxicity log GI50 [4]: -5.47 M | cytotoxicity log GI50 [5]: -5.59 M | cytotoxicity log GI50 [6]: -5.76 M | cytotoxicity log GI50 [7]: -5.46 M | cytotoxicity log GI50 [8]: -5.25 M | cytotoxicity log GI50 [9]: -5.69 M | cytotoxicity log GI50 [10]: -5.26 M | cytotoxicity log GI50 [11]: -5.33 M | cytotoxicity log GI50 [12]: -5.36 M | cytotoxicity log GI50 [13]: -5.39 M | cytotoxicity log GI50 [14]: -5.50 M | cytotoxicity log GI50 [15]: -5.26 M | cytotoxicity log GI50 [16]: -4.93 M | cytotoxicity log GI50 [17]: -5.97 M | cytotoxicity log GI50 [18]: -5.09 M | cytotoxicity log GI50 [19]: -5.29 M | cytotoxicity log GI50 [20]: -5.38 M | GI50 [21]: 1 to 10 µM | cytotoxicity log GI50 [22]: -5.69 M | cytotoxicity log GI50 [23]: -5.05 M

COC(=O)CCCC(=O)NC1=C(Nc2ccc(OC)cc2)C(=O)c2ccccc2C1=O [Compound 53]
cytotoxicity log GI50 [1]: -4.71 M | cytotoxicity log GI50 [4]: -4.89 M | cytotoxicity log GI50 [24]: -4.74 M | cytotoxicity log GI50 [25]: -4.75 M | cytotoxicity log GI50 [26]: -4.71 M | cytotoxicity log GI50 [27]: -5.47 M | cytotoxicity log GI50 [5]: -4.71 M | cytotoxicity log GI50 [28]: -4.77 M | cytotoxicity log GI50 [6]: -4.80 M | cytotoxicity log GI50 [29]: -5.20 M | cytotoxicity log GI50 [30]: -4.68 M | cytotoxicity log GI50 [31]: -4.71 M | cytotoxicity log GI50 [32]: -4.69 M | cytotoxicity log GI50 [33]: -4.74 M | cytotoxicity log GI50 [34]: -4.68 M | cytotoxicity log GI50 [35]: -4.69 M | cytotoxicity log GI50 [36]: -4.75 M | cytotoxicity log GI50 [37]: -4.74 M | cytotoxicity log GI50 [38]: -4.73 M | cytotoxicity log GI50 [39]: -4.79 M

CC(=O)NC1=C(NCCCl)C(=O)c2ccccc2C1=O [Compound 43]
cytotoxicity log GI50 [40]: -4.60 M | cytotoxicity log GI50 [41]: -4.61 M | cytotoxicity log GI50 [4]: -4.70 M | cytotoxicity log GI50 [27]: -4.86 M | cytotoxicity log GI50 [5]: -4.69 M | cytotoxicity log GI50 [42]: -4.65 M | cytotoxicity log GI50 [43]: -4.72 M | cytotoxicity log GI50 [31]: -4.89 M | cytotoxicity log GI50 [13]: -4.58 M | cytotoxicity log GI50 [44]: -4.55 M | cytotoxicity log GI50 [45]: -4.60 M | cytotoxicity log GI50 [32]: -4.58 M | cytotoxicity log GI50 [33]: -4.78 M | cytotoxicity log GI50 [15]: -4.69 M | cytotoxicity log GI50 [34]: -4.67 M | cytotoxicity log GI50 [46]: -4.60 M | cytotoxicity log GI50 [47]: -4.55 M | cytotoxicity log GI50 [37]: -4.82 M | cytotoxicity log GI50 [48]: -4.77 M | cytotoxicity log GI50 [23]: -4.70 M

CC(=O)NC1=C(NCC(C)C)C(=O)c2ccccc2C1=O [Compound 31]
cytotoxicity log GI50 [1]: -4.76 M | cytotoxicity log GI50 [41]: -4.77 M | cytotoxicity log GI50 [49]: -4.90 M | cytotoxicity log GI50 [4]: -4.74 M | cytotoxicity log GI50 [27]: -4.72 M | cytotoxicity log GI50 [5]: -4.69 M | cytotoxicity log GI50 [50]: -4.80 M | cytotoxicity log GI50 [8]: -4.84 M | cytotoxicity log GI50 [9]: -4.81 M | cytotoxicity log GI50 [10]: -4.79 M | cytotoxicity log GI50 [29]: -4.78 M | cytotoxicity log GI50 [11]: -5.14 M | cytotoxicity log GI50 [30]: -4.77 M | cytotoxicity log GI50 [12]: -5.56 M | cytotoxicity log GI50 [31]: -4.74 M | cytotoxicity log GI50 [51]: -4.74 M | cytotoxicity log GI50 [32]: -4.70 M | cytotoxicity log GI50 [52]: -4.68 M | cytotoxicity log GI50 [53]: -4.78 M | cytotoxicity log GI50 [16]: -4.73 M | cytotoxicity log GI50 [54]: -4.85 M | cytotoxicity log GI50 [17]: -4.75 M | cytotoxicity log GI50 [46]: -4.68 M | cytotoxicity log GI50 [18]: -4.67 M | cytotoxicity log GI50 [55]: -4.85 M | cytotoxicity log GI50 [37]: -4.73 M | cytotoxicity log GI50 [19]: -4.69 M | cytotoxicity log GI50 [48]: -4.70 M | cytotoxicity log GI50 [20]: -4.72 M | cytotoxicity log GI50 [56]: -4.77 M | cytotoxicity log GI50 [57]: -4.89 M | cytotoxicity log GI50 [22]: -4.81 M

From patent publication US5789431A, “Naphthoquinone antitumor compound and method” (The University of North Carolina at Chapel Hill, priority 1996, dated 1998)
